These results are taken from US20240002397A1, “3-AMINO PYRROLIDINE AND PIPERIDINE MACROCYCLIC OREXIN RECEPTOR AGONISTS” (Merck Sharp & Dohme LLC, priority 2020, published 2024).

The first test has as its target T1, human OX2R (Homo sapiens, UniProt O43614).
T1 sequence (O43614 1-444): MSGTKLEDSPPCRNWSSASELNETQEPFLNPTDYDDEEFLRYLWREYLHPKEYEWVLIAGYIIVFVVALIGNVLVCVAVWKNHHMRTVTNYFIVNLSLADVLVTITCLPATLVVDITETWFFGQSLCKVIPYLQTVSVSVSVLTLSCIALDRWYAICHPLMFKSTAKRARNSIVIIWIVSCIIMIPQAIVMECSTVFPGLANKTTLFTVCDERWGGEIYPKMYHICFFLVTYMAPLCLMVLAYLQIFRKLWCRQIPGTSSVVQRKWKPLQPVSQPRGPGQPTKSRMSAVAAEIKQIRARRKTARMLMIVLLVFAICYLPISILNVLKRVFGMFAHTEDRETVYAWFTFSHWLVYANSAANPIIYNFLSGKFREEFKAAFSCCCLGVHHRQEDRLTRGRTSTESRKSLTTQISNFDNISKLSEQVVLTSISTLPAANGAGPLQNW
Description: IPOne (IP-1) orexin receptor agonist assay in CHO cells expressing human OX2R. Conditions: CHO, hOX2R IP-One; percentage of mean max effect of a reference compound at 1 uM with 100% activity.
One may read the Emax as the maximal effect, on the per cent scale that the assay sets. In turn, `CN(C)C[C@@H]1C[C@H](NS(C)(=O)=O)[C@@H]2CO[C@H]3CC[C@H](CC3)c3nc(ccc3C(F)(F)F)OCCOC(=O)N12` [Example 98, N-((2^1R,2^4R,5^2R,5^3S,5^5S)-5^5-((dimethylamino)methyl)-6-oxo-1^3-(trifluoromethyl)-3,7,10-trioxa-1(2,6)-pyridina-5(2,1)-pyrrolidina-2(1,4)-cyclohexanacyclodecaphane-5^3-yl)methanesulfonamide] came in with a maximal response (Emax) of 100%. Still for that read-out and setting: in the case of `COc1cc2nc(c1)[C@H]1CC[C@H](CC1)OC[C@H]1[C@@H](NS(C)(=O)=O)C[C@@H](C)N1C(=O)OCCCN2` [Example 88, N-((2^1S,2^4S,5^2R,5^3S,5^5R)-1^4-methoxy-5^5-methyl-6-oxo-3,7-dioxa-11-aza-1(2,6)-pyridina-5(2,1)-pyrrolidina-2(1,4)-cyclohexanacycloundecaphane-5^3-yl)methanesulfonamide] it was 103%; in that of `C[C@@H]1C[C@H](NS(C)(=O)=O)C2COC3CCC(CC3)c3cc(ccc3OC(F)(F)F)OCCCOC(=O)N21` (some centres unmarked) [Example 50, N-((2^1S,2^4S, 5^2R,5^3S,5^5R)-5^5-methyl-6-oxo-1^6-(trifluoro-methoxy)-3,7,11-trioxa-5(2,1)-pyrrolidina-1(1,3)-benzena-2(1,4)-cyclohexana-cyclounde-caphane-5^3-yl)methane-sulfonamide], 101%; in that of `CC(C)Oc1ccc2cc1C1CCC(CC1)OCC1[C@@H](NS(C)(=O)=O)C[C@@H](C)N1C(=O)OCCCO2` (some centres unmarked) [Example 63, N-((2^1S,2^4S,5^2R,5^3S,5^5R)-1^6-isopropoxy-5^5-methyl-6-oxo-3,7,11-trioxa-5(2,1)-pyrrolidina-1(1,3)-benzena-2(1,4)-cyclohexanacycloundecaphane-5^3-yl)methanesulfonamide], 93.1%. On the same count and under the same terms, the figure for `C[C@@H]1C[C@H](NS(C)(=O)=O)C2COC3CCC(CC3)c3ccc(OC(F)(F)F)c(n3)OCCOC(=O)N21` (some centres unmarked) [Example 72, N-((2^1S,2^4S,5^2R,5^3S,5^5R)-5^5-methyl-6-oxo-1^5-(trifluoromethoxy)-3,7,10-trioxa-1(2,6)-pyridina-5(2,1)-pyrrolidina-2(1,4)-cyclohexanacyclodecaphane-5^3-yl)methanesulfonamid] is 102%; for `COC[C@@H]1C[C@H](NS(C)(=O)=O)C2COC3CCC(CC3)c3nc(ccc3C(F)(F)F)OCCOC(=O)N21` (some centres unmarked) [Example 87, N-((2^1S,2^4S,5^2R,5^3S,5^5S)-5^5-(methoxymethyl)-6-oxo-1^3-(trifluoromethyl)-3,7,10-trioxa-1(2,6)-pyridina-5(2,1)-pyrrolidina-2(1,4)-cyclohexanacyclodecaphane-5^3-yl)methanesulfonamide] it is 100%; for `C[C@@H]1C[C@H](NS(C)(=O)=O)C2COC3CCC(CC3)c3cccc(c3)OCCCC(=O)N21` (some centres unmarked) [Example 20, N-((2^1S,2^4S, 5^2R,5^3S,5^5R)-5^5-methyl-6-oxo-3,10-dioxa-5(2,1)-pyrrolidina-1(1,3)-benzena-2(1,4)-cyclohexana-cyclodecaphane-5^3-yl) methanesulfonamide] it is 101%.

As for `C[C@@H]1C[C@H](NS(C)(=O)=O)C2COC3CCC(CC3)c3nc(ccc3OC(F)(F)F)OCCOC(=O)N21` (some centres unmarked) [Example 58, N-((2^1S,2^4S,5^2R,5^3S,5^5R)-5^5-methyl-6-oxo-1^3-(trifluoromethoxy)-3,7,10-trioxa-1(2,6)-pyridina-5(2,1)-pyrrolidina-2(1,4)-cyclohexanacyclodecaphane-5^3-yl)methanesulfonamide], the Emax worked out at 102%. Still for that read-out and setting: the figure for `C[C@@H]1C[C@H](NS(C)(=O)=O)[C@@H]2COC3CCC(CC3)c3ccccc3/C=C/OC(=O)N12` [Example 2, N-((2^1R,2^4R,5^2R,5^3S,5^5R,E)-5^5-methyl-6-oxo-3,7-dioxa-5(2,1)-pyrrolidina-1(1,2)-benzena-2(1,4)-cyclohexanacyclonaphan-8-en-5^3-yl)methanesulfonamide] is 102%. Compound `Cc1cc2nc(c1)C1CCC(CC1)OCC1[C@@H](NS(C)(=O)=O)C[C@@H](C)N1C(=O)OCCCO2` (some centres unmarked) [Example 67, N-((2^1S,2^4S,5^2R,5^3S,5^5R)-1^4,5^5-dimethyl-6-oxo-3,7,11-trioxa-1(2,6)-pyridina-5(2,1)-pyrrolidina-2(1,4)-cyclohexanacycloundecaphane-5^3-yl)methanesulfonamide] gave a maximal response (Emax) of 98.5%. Still for that read-out and setting: in the case of `C[C@@H]1C[C@H](NS(C)(=O)=O)C2COC3CCC(CC3)c3ccc(F)c(n3)OCCCOC(=O)N21` (some centres unmarked) [Example 57, N-((2^1S,2^4S,5^2R,5^3S,5^5R)-1^5-fluoro-5^5-methyl-6-oxo-3,7,11-trioxa-1(2,6)-pyridina-5(2,1)-pyrrolidina-2(1,4)-cyclohexanacycloundecaphane-5^3-yl)methanesulfonamide] it was 102%; in that of `CS(=O)(=O)N[C@H]1C[C@@H](CC(N)=O)N2C(=O)OCCOc3ccc(C(F)(F)F)c(n3)C3CCC(CC3)OCC12` (some centres unmarked) [Example 99, 2-((2^1R,2^4R,5^2R,5^3S,5^5S)-5^3-(methylsulfonamido)-6-oxo-1^3-(trifluoromethyl)-3,7,10-trioxa-1(2,6)-pyridina-5(2,1)-pyrrolidina-2(1,4)-cyclohexanacyclodecaphane-5^5-yl)acetamide], 100%; in that of `C[C@@H]1C[C@H](NS(C)(=O)=O)C2COC3CCC(CC3)c3cc(C(F)(F)F)cc(n3)N(C)CCCOC(=O)N21` (some centres unmarked) [Example 89, N-((2^1S,2^4S,5^2R,5^3S,5^5R)-5^5,1^1-dimethyl-6-oxo-1^4-(trifluoromethyl)-3,7-dioxa-11-aza-1(2,6)-pyridina-5(2,1)-pyrrolidina-2(1,4)-cyclohexanacycloundecaphane-5^3-yl)methanesulfonamide], 101%. The compound `C[C@@H]1C[C@H](NS(C)(=O)=O)C2CO[C@H]3CC=C(CC3)c3cc(F)cc(c3)OCCCCC(=O)N21` (some centres unmarked) [Example 43, N-((2^1S,2^4S, 5^2R,5^3S,5^5R)-1^5-fluoro-5^5-methyl-6-oxo-3,11-dioxa-5(2,1)-pyrrolidina-1(1,3)-benzena-2(1,4)-cyclohexana-cyclounde-caphan-2^1-en-5^3-yl)methane-sulfonamide] displayed an Emax of 102%.

Staying with this test, now noted: hOX2R IP-One; percentage of mean max effect of a reference compound at 1 uM with 100% activity.
As to `CS(=O)(=O)NC1CCCN2C(=O)CCCOc3cccc(c3)C3CCC(C3)OCC12` (centres unmarked) [Example 33, N-((2^1S,2^3R,5^2R,5^3S)-6-oxo-3,10-dioxa-5(2,1)-piperidina-1(1,3)-benzena-2(1,3)-cyclopentanacyclodecaphane-5^3-yl)methanesulfonamide], the “Emax (%)” value was −3.9%. Still for that read-out and setting: in the case of “N′-((2^1S,2^4S,5^2R,5^3S)-6-oxo-3,7-dioxa-5(2,1)-piperidina-1(1,2)-benzena-2(1,4)-cyclohexanacyclononaphane-5^3-yl)-N,N-dimethyl-sulfamide [Example 37]” it was 5.8%; in that of `CC1CC(NS(C)(=O)=O)C2COC3CCC(CC3)c3cc(C(F)(F)F)cc(n3)CCCCOC(=O)N12` (centres unmarked) [Example 109, N-((2^1S,2^4S,5^2R,5^3S,5^5R)-5^5-methyl-6-oxo-14-(trifluoromethyl)-3,7-dioxa-1(2,6)-pyridina-5(2,1)-pyrrolidina-2(1,4)-cyclohexanacycloundecaphane-5^3-yl)methanesulfonamide], 102.4%.
